{"source": "patent US20050059605A1", "about": "“Chemically modified metabolites of regulatory peptides and methods of producing and using same” (priority 2003, published 2005)", "key": {"[1]": {"tested_on": "freshly isolated hepatocytes", "assay": "Effects of glucagon and analogues on freshly isolated hepatocyte cAMP production", "assay_type": "cell-based, rat", "settings": "10^−7M, n=2, FIG. 3, compared to analogue 357 or glucagon", "method": "All experimental procedures were performed under isoflurane (2.5%) anesthesia according to an experimental protocol approved by Ste-Justine Hospital (Montreal) animal care committee. […] The animal was perfused through the heart to remove a maximal amount of blood from the liver (acquire a light brown color). A catheter (PE-90) was then inserted in the portal vein and the liver further perfused to eliminate any trace of blood. The hepatic artery was also cannulated (PE-50) and perfused. The liver was then carefully removed from the abdominal cavity and placed into a 250 ml beaker. Digesting HEPES buffer containing 9650U collagenase and 20U elastase at 37° C. was placed into the beaker and circulated in a closed loop via the catheters for 10 minutes at maximal speed. The buffer was replaced with a fresh solution of collagenase and elastase and perfusion continues for 10 additional minutes. […]\nStimulation studies were performed at a concentration of 1 million cells per tube; 5 minutes of pre-treatment with 0.1 mM IBMX, with or without glucagon agonists (10^−7M) compared to treatment with glucagon (10^−7M). […] The cAMP levels in the tubes were determined using a radioimmunoassay kit (Amersham DPC kit). The data are expressed as pmol cAMP/million cells."}, "RINm5F cells": {"tested_on": "RINm5F cells", "assay": "Dose response curves of GLP-1 analogues on cAMP production in RINm5F cells", "assay_type": "cell-based, rat", "settings": "n=3, FIG. 4", "method": "RINm5F cells (ATCC # CRL-2058) were grown according to the manufacturer's specifications. Cells from […] confluent flasks were trypsinized and counted. 20 000 cells/well were seeded in 96-well plate (White Costar plate with clear bottom) in 100 μl media. Cells were grown four days past confluence before being using for experiments.\nStock solutions of agents tested were prepared in DDH2O+0.1% BSA at a concentration of 1 mM (correcting for peptide purity and peptide content when available) immediately prior to the beginning of the assay. From the stock solutions, 2× dilutions (2×10^−12 M to 2×10^−5 M) were made in RPMI medium containing 0.5 mM IBMX. Cell culture media was gently removed from wells. Cells were then washed once with RPMI containing 0.5 mM IBMX and then pre-incubated in 100 μl RPMI/0.5 mM IBMX at 37° C. for 10 minutes. After pre-incubation, 100 μl of each 2× dilutions were added to wells in triplicates and incubated at 37° C. for 40 minutes. At the end of incubation, the supernatant was collected and assayed for cAMP using a radioimmunoassay kit (DPC). Radioactive counts were transformed into cAMP amounts using a standard curve. cAMP values were corrected for total protein content in the corresponding wells determined by Coomassie blue assay. cAMP values were expressed as mean±SEM in pmol/mg protein (FIG. 2). […]"}, "C57BL/ks db/db mice": {"tested_on": "C57BL/ks db/db mice", "assay": "Glucose levels after subcutaneous injection in fasted and re-fed db/db mice", "assay_type": "in vivo", "settings": "25 μg/mice (500 μg/kg) subcutaneous, 30 minutes of feeding subsequent to overnight fasting, compared to native GLP-1, FIG. 5"}, "[2]": {"tested_on": "whole anterior pituitary culture", "assay": "cAMP production stimulated by GRF analogues in whole anterior pituitary culture", "assay_type": "cell-based", "settings": "10^−6 M, compared to analogue 356, FIG. 6", "text": "For comparison, a DPPIV resistant analogue of GRF (analogue 280) was shown."}}, "note": "Where no end group is shown, it is not given here."}
{"substance": "4-Methoxyphenethylamine-mGly-Glucagon (3-29) amide [Compound 361]", "values": [{"measurement": "intracellular cAMP levels", "setting": "[1]", "value": "significantly higher intracellular cAMP levels"}]}
{"substance": "4-Methoxyphenetylamine-mGly-GLP-1 (9-36) amide [Compound 288]", "values": [{"measurement": "cAMP production", "setting": "RINm5F cells", "value": "increased CAMP production"}, {"measurement": "glucose levels (hypoglycemic response)", "setting": "C57BL/ks db/db mice", "value": "more significant hypoglycemic response"}]}
{"substance": "Glucagon (3-29) amide (QGTFTSDYSKYLDSRRAQDFVQWLMNT-NH2; UniProt P01275 55-81, looked up, fragment) [Compound 357, glucagon analogue lacking the His-Ser dipeptide, reference compound]", "values": [{"measurement": "intracellular cAMP levels", "setting": "[1]", "value": "negligible response"}]}
{"substance": "4-Methoxyphenethylamine-mGly-GRF-1 (3-29) amide [Compound 358]", "values": [{"measurement": "cAMP response", "setting": "[2]", "value": "significantly greater cAMP response"}]}
